Experimental data taken from ChEMBL document CHEMBL1150409, “Development of paramagnetic probes for molecular recognition studies in protein kinases” (J Med Chem, 2008).
Activity calls are given as the source filed them. The calls are words filed in the database; no cut-off is given here. Peptide text beside a SMILES is read from it. * marks the point of attachment. X1 = O=C(NCCCN*)c1ccc(-c2n[nH]c3ccccc23)cc1

How the values were obtained:
[1] = biological target: Mitogen-activated protein kinase 8 (Homo sapiens, UniProt P45983); test: Inhibition of JNK1 by TR-FRET assay
[2] = biological target: Mitogen-activated protein kinase 9 (Homo sapiens) (UniProt P45984); test: Displacement of biotin-labeled pep-JIP1 from GST fused JNK2 upto 200 uM by DELFIA assay
[3] = biological target: Mitogen-activated protein kinase 14 (Homo sapiens) (UniProt Q16539); test: Inhibition of MAPK p38alpha upto 100 uM
[4] = biological target: Mitogen-activated protein kinase 9 (Homo sapiens) (UniProt P45984); test: Displacement of biotin-labeled pep-JIP1 from GST fused JNK2 by DELFIA assay

Sequence of Mitogen-activated protein kinase 9 (Homo sapiens) (P45984 whole entry, looked up, the tested form may be a part): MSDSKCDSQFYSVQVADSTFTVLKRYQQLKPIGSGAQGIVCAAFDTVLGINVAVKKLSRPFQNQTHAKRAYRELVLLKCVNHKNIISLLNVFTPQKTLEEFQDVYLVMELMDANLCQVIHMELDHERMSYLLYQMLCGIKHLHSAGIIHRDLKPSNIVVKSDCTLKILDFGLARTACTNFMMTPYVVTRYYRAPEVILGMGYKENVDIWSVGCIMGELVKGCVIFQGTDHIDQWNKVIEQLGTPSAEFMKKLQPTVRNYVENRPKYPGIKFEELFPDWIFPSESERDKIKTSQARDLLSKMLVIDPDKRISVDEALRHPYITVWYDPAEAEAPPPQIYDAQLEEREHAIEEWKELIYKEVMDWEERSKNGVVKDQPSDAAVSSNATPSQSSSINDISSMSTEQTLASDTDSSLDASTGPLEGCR
Sequence of Mitogen-activated protein kinase 8 (P45983 whole entry, the tested form may be a part): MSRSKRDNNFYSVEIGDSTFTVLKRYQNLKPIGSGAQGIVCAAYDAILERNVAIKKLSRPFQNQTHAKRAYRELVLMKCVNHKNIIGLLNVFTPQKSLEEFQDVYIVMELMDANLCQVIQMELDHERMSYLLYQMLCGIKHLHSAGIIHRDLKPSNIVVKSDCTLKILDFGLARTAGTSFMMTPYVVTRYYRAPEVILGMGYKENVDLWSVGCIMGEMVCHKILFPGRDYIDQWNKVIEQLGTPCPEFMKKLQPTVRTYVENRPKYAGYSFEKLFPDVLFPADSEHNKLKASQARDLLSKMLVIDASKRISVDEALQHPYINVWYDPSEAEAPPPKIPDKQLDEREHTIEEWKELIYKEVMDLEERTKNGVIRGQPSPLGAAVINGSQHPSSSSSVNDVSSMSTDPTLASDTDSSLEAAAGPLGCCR
Sequence of Mitogen-activated protein kinase 14 (Homo sapiens) (Q16539 whole entry, the tested form may be a part): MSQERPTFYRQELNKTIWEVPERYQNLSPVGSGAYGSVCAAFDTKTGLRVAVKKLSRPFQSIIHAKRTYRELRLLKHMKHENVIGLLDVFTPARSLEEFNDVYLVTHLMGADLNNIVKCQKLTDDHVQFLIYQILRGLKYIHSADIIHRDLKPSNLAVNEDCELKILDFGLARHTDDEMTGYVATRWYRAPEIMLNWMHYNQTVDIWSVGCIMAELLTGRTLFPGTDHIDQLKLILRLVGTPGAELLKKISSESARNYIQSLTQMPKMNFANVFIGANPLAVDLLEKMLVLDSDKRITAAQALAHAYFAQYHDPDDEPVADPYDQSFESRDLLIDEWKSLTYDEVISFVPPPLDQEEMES

Structure (SMILES) | IC50 [1] [nM] | Activity [2] | IC50 [4] [nM] | further results
O=C(O)CCCNC(=O)c1ccc(-c2n[nH]c3ccccc23)cc1 | 1400 | – | – | –
CC(=O)N[C@@H](CC(C)C)C(=O)N[C@@H](CC(N)=O)C(=O)N[C@@H](CC(C)C)C(=O)O (Ac-Leu-Asn-Leu-OH) | – | inactive | – | –
CC(=O)N[C@@H](CC(C)C)C(=O)N[C@@H](CC(N)=O)C(=O)N[C@@H](CC(C)C)C(=O)NCC(=O)NCC(=O)O (Ac-LNLGG-OH) | – | inactive | – | –
CC1(C)CC(NC(=O)CCCNC(=O)c2ccc(-c3n[nH]c4ccccc34)cc2)CC(C)(C)N1O | 1200 | – | – | –
CC(=O)N[C@@H](CC(C)C)C(=O)N[C@@H](CC(N)=O)C(=O)N[C@@H](CC(C)C)C(=O)NCC(=O)NCC(=O)NCCCNC(=O)c1ccc(-c2n[nH]c3ccccc23)cc1 (Ac-LNLGG-X1) | 295 | – | 20 | Activity [3]: inactive
CC(=O)N[C@@H](CCCNC(=N)N)C(=O)N1CCC[C@H]1C(=O)N[C@H](C(=O)N[C@H](C(=O)N[C@@H](CC(C)C)C(=O)N[C@@H](CC(N)=O)C(=O)N[C@@H](CC(C)C)C(=O)O)[C@@H](C)O)[C@@H](C)O (Ac-RPTTLNL-OH) | – | – | 53000 | –
